Measurements published in US10759740B2, “Antibacterial agents” (Rutgers, The State University of New Jersey, priority 2016, dated 2020).

Key:
[1] = test system: G. vaginalis pre-formed biofilms; assay: MBC-B against pre-formed biofilms (Example 2); type: cell-based; conditions: pre-formed biofilm, ≥3 log reduction in viable cells
Description: (§1) The minimum biofilm bactericidal concentrations (MBC-Bs) of the cationic amphiphiles against pre-formed biofilms of L. monocytogenes and G. vaginalis were identified. The biofilms of the two targeted microorganisms were grown in 96-well plates according to established methodology for Gram-positive and Gram-variable bacteria (Tabak et al., FEMS microbiology letters. 2009; 301(1):69-76). To identify the reduction in the number of biofilm-associated viable cells treated with different concentrations of cationic amphiphiles, the spot plate method was used (Turovskiy et al., Infectious diseases in obstetrics and gynecology. 2012; 2012:284762, 9 pages). In brief, biofilms were washed, disrupted, diluted 10^1-10^8 times with fresh medium and the samples plated on suitable solid medium.

[2] = test system: L. monocytogenes pre-formed biofilms; assay: MBC-B against pre-formed biofilms (Example 2); type: cell-based; conditions: pre-formed biofilm, ≥3 log reduction in viable cells
Description: as §1

[3] = test system: G. vaginalis pre-formed biofilms; assay: Biofilm removal (FIG. 5); type: cell-based; conditions: 250 μg/mL against pre-formed biofilms
E. coli = assay: SEM and TEM of treated bacteria; type: cell-based, Escherichia coli; conditions: at MIC, 1 h
Description: (§2) Bacteria were grown to the mid-exponential growth phase. Silicon wafers were submerged in the bacterial solutions in the presence or absence of CAMs at their respective MICs and incubated for 1 h. 0.25% glucose was added to facilitate attachment. The bacteria on wafers were fixed in 2.5% glutaraldehyde for 1 h at room temperature, washed three times with PBS, and postfixed 1% osmium tetroxide. The samples were then dehydrated in a graded series of ethanol solutions (50%, 70%, 80%, 95%, 100%), dried with graded hexamethyldisilazane (50%, 100%), and left to air dry for two days. After drying, the wafers were mounted on stub and sputter-coated with 20 nm gold prior to inspection under microscope (Zeiss Sigma Field Emission SEM, Carl Zeiss, Ontario, Calif.) at 5 kV.
(§3) Bacteria were grown as described above for SEM sample preparation. In brief, bacteria were incubated in the presence or absence of CAMs at their respective MICs for 1 h. After centrifugation at 500×g for 10 min, the resulting pellet was fixed in 2.5% glutaraldehyde, washed three times with PBS, and postfixed with 1% osmium tetroxide. The samples were then dehydrated with graded ethanol series (50%, 70%, 80%, 95%, 100%) and embedded in epoxy resin (Dr. Spurr's kit, Electron Microscopy Sciences, Hatfield, Pa.). Ultrathin sections of the cells were stained with 1% uranyl acetate. […]

S. aureus = assay: SEM and TEM of treated bacteria; type: cell-based, Staphylococcus aureus; conditions: at MIC, 1 h
Description: as §2, §3

| Structure (SMILES) | MBC-B G. vaginalis [1] | MBC-B, L. monocytogenes [2] | removal of biofilm structures [3] | ultrastructural changes (TEM) (E. coli) | ultrastructural changes (TEM) (S. aureus) |
| --- | --- | --- | --- | --- | --- |
| CCCCCCCCCCOC(C(=O)NCCN)C(OCCCCCCCCCC)C(=O)NCCN.Cl.Cl (stereo not shown) [5b] | approximately 31.25 μg/mL | approximately 250 μg/mL | up to 70% | extensive ultrastructural damage | profound internal damage |
| CCCCCCCCCC(=O)OC(C(=O)NCCN)C(OC(=O)CCCCCCCCC)C(=O)NCCN.Cl.Cl (stereo not shown) [8b] | approximately 31.25 μg/mL | approximately 250 μg/mL | – | – | – |
